Assay [1] concerns the target T1, Recombinant human pro-MMP-9 (Homo sapiens, UniProt P14780).
T1 construct: purchased AnaSpec 72009
Description: MMP Assay Kit (5-FAM/QXL520 FRET peptide) for MMP-9 bioactivity. The class given is biochemical. The conditions noted are these: final concentration of PAN-811 1 mM, calcium 0.4 mM, 30 min room temperature. An excerpt: The principle behind this analysis is as follows. A 5-FAM/QXL™520 fluorescence resonance energy transfer (FRET) peptide is used as a substrate for MMP. The fluorescence of 5-FAM is quenched by QXL™520 in intact FRET peptide. However, upon cleavage of FRET into two separate fragments by MMP, in the presence of Ca^2+, the fluorescence of 5-FAM is recovered, and can be monitored at excitation/emission wavelengths of […]/520 nm with a fluorometer. Thus, an inhibitor of MMP-9 could suppress the cleavage of FRET by MMP-9 and decrease the fluorescence intensity of 5-FAM. To test the effect of PAN-811 on the bioactivity of MMP-9, black 96-well plates (Cat #3603, Costar®), Corning Inc.) were pre-warmed at 37° C. 4-aminophenylmercuric acetate (APMA) was diluted 20-fold with assay buffer (both in MMP assay kit) to a final concentration of […]. Recombinant human pro-MMP-9 (10 μg/ml, Cat #72009, AnaSpec, San Jose) was pre-incubated with 1 mM APMA at 37° C. for 2 hours to activate this enzyme. […] Treated wells were incubated at room temperature for 30 min and the fluorescence intensity of 5-FAM was determined for each sample by measurement at excitation/emission wavelengths of 485 nm/520 nm with a fluorometer and reported in RFU (FIGS. 6A and 6B). […]

Assay [2] concerns Middle Cerebral Artery Occlusion (MCAo) rats. Description: Middle cerebral artery occlusion (MCAo) rat model: infarct volume, edema volume, premature mortality. The class given is in vivo, male Sprague-Dawley rats. As for the experimental part: For Middle Cerebral Artery Occlusion (MCAo), male Sprague-Dawley rats (270 to 330 g) were anesthetized with gaseous isoflurane. With aseptic surgical techniques, a laser-Doppler probe was placed on the right temporal-lateral portion of the skull over a region of the cortex which is supplied by the middle cerebral artery to record cerebral blood flow (CBF). CBF was recorded before and after arterial occlusion. The bifurcation of the right external common carotid 8 artery (ECA) and internal common carotid artery (ICA) was surgically exposed. A 4-0 monofilament suture treated with a silicone coating to enlarge the tip to better achieve an arterial block was placed into the ECA stump, and advanced up the ICA approximately 20 mm until a drop in CBF of approximately 75% or greater was measured by laser Doppler flowmetry (PeriFlux PF5010, Perimed). The duration of the ischemia was 120 minutes.
PAN-811 was originally dissolved to a concentration of 25.6 mmol/L in 7% (v/v) polyethylene glycol (PEG) 300, 3% ethanol (EtOH), 28.6 mmol/L citric acid and 5.7 mmol/L L-ascorbic acid solution. 25.6 mmol/L was the highest concentration of PAN-811 used for dosing. This solution was further diluted with normal saline to produce dosing solutions of 2.56 mmol/L, 5.12 mmol/L, and 10.2 mmol/L on the day of surgery. Vehicle dosing solutions were identical in components to the 5.12 mmol/L PAN-811 group (Vehicle Low), or the 10.2 mmol/L group (Vehicle High). These treatments were delivered intravenously route into MCAo rats at reperfusion time. […]
After 22 hours of treatment, the animals were sacrificed by CO2 asphyxiation, and their brains sectioned at 2 mm intervals. […] Brain areas were traced and measured using a computerized image analysis system (SimplePCI Version 4.0.0, Compix Inc) to determine infarct volume (in cubic millimeters, mm^3), whereby unstained areas were defined as ischemic lesions of infarcted tissue.
Ischemic stroke often results in brain edema (Ayata et al., 2002). Therefore, the volumes for both ipsilateral and contralateral side hemispheres of MCAo rats were measured 22 hours later, and the edema volumes (hemisphere volume of the ipsilateral side hemisphere volume of contralateral one) were calculated, and expressed as mean±SEM (FIG. 1B). […]
Brain edema can result in death of MCAo rats. Therefore, the mortalities for vehicle groups and PAN-811 treated groups, as explained in Examples 1 and 2, were counted (FIG. 1C). Mortalities of general vehicle treated groups (open bar) and collective PAN-811 treated groups (black bar) were determined and premature death rates were expressed as percentage of total animal number in each condition. […]

T1 sequence (P14780 107-707 limits assumed): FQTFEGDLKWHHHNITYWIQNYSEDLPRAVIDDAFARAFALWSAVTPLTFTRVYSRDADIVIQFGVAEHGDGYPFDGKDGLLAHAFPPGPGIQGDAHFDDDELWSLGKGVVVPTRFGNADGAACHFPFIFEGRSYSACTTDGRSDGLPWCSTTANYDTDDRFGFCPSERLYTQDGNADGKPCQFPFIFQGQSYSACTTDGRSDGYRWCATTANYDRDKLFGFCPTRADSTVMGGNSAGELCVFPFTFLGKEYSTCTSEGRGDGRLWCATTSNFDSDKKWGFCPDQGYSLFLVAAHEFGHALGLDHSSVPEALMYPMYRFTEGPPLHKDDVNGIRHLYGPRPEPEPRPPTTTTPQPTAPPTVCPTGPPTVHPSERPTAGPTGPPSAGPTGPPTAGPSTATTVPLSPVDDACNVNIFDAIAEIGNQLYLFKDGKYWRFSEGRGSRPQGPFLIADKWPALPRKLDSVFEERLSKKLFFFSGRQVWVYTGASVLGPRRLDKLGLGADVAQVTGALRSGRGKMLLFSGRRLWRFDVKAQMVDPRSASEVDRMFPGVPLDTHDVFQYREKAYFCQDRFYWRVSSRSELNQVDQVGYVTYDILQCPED

`NC(=S)N/N=C/c1ncccc1N` [PAN-811, 3-aminopyridine-2-carboxaldehyde thiosemicarbazone]: in assay [1], the “suppression of pro-MMP-9-catalyzed increase in fluorescence intensity” value amounted to 64%. For the same molecule, the “reduction in edema volume” value in assay [2] (2 mg/kg i.v., compared to the high vehicle group, 22 hours) worked out at 70%; in assay [2] (5 mg/kg i.v., compared with High vehicle group, 22 hours (data not shown)) it was 31%. The same molecule registered a premature mortality rate in assay [2] (all PAN-811 treated groups (9 of 57), vehicle groups 28%) of 15.8%. In addition, the “reduction of premature mortality” value in assay [2] (all PAN-811 treated groups versus the 2 vehicle-treated groups) is 44%.

The values are drawn from US20090286799A1, “METHODS FOR THE TREATMENT OF BRAIN EDEMA” (priority 2008, published 2009).
